The test addresses T1, Gal-T1(Y289L,C342T) (Bos taurus, UniProt P08037, C342T/Y289L).
T1 construct: host or cells: E. coli
T1 sequence (P08037 130-402 V158I/P187L/I205M/L206V/Y289L/C342T): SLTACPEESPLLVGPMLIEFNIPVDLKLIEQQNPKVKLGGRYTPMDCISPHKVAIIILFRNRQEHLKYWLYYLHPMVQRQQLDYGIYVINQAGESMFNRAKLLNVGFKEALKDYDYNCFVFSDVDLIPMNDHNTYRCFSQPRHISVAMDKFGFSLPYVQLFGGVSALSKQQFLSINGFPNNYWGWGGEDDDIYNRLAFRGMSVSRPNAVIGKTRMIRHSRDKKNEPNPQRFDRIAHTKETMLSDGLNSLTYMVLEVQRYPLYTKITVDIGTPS
The experiment in a line: Glycosyltransfer of UDP-galactosamine derivatives to trimmed antibody with Gal-T1(Y289L,C342T), mass spectral analysis. Type of test: biochemical, bovine. How it is done: A solution of 20 μg (modified) IgG was incubated for 1 hour at 37° C. with Fabricator™ (commercially available from Genovis, Lund, Sweden) (1.25 U/μL) in phosphate-buffered saline (PBS) pH 6.6 in a total volume of 10 μL. Fabricator™-digested samples were washed trice with milliQ using an Amicon Ultra-0.5, Ultracel-10 Membrane (Millipore) resulting in a final sample volume of approximately 40 μL. The Fc/2 fragment was analyzed by electrospray ionization time-of-flight (ESI-TOF) on a JEOL AccuTOF. Deconvoluted spectra were obtained using Magtran software.
Trimmed trastuzumab (10 mg/mL, 3.3 nmol), obtained by Endo S treatment of trastuzumab, was incubated with nicotinic acid variant of UDP-galactosamine (21, 2 mM) and Gal-T1(Y289L,C342T) (0.5 mg/mL, 3 μL/4 mg/ml) in 10 mM MnCl2 and 25 mM Tris-HCl pH 7.5 at 30° C. overnight. Mass spectral analysis of the sample after treatment with Fabricator™ (commercially available from Genovis) indicated the formation of the correct structure of CH2-CH3 fragment of 28 (24404 Da, expected mass 24405 Da, approximately 35% conversion), resulting from galactosamide nicotinic acid transfer to core GlcNAc(Fuc) substituted trastuzumab heavy chain.
A pET22b vector containing the sequence encoding residues 130-402 of bovine Gal-T1 with the Y289L and C342T mutations between the NdeI-BamHI sites was obtained from Genscript. Using this plasmid Gal-T1(Y289L,C342T) was expressed, isolated and refolded from inclusion bodies according to the reported procedure by Qasba et al. (Prot. Expr. Pur. 2003, 30, 219-76229, incorporated by reference herein). After refolding, the solution was dialyzed against 20 mM Tris pH 7.5 and the insoluble protein was removed by centrifugation (10 minutes 10.000 g). The soluble Gal-T1(Y289L,C342T), represented by SEQ ID NO: 25, was purified and concentrated using a cation exchange column (Source 15S HR16/10 column, GE Healthcare). After elution with 20 mM Tris-HCl pH 7.5, 1 M NaCl, the protein was dialyzed against 20 mM Tris-HCl pH 7.5. This procedure yielded 90 mg inclusion bodies from 0.5 L culture, which after refolding gave 3.9 mg active soluble protein.
Trimmed trastuzumab (10 mg/mL, 66 μM), obtained by Endo S treatment of trastuzumab, was incubated with the 4-azido-2,3,5,6-tetrafluorobenzoyl derivative of UDP-galactosamine (23b, 1 mM) and Gal-T1(Y289L,C342T) (1.0 mg/mL) in 10 mM MnCl2 and 25 mM Tris-HCl pH 8.0 at 30° C. overnight. Mass spectral analysis of the Fabricator™-digested sample indicated a partial conversion of core GlcNac(Fuc)-substituted trastuzumab (observed mass 24139 Da, calculated mass of 24136 Da) into the product 30b (observed mass 24518 Da, calculated mass of 24514 Da, approximately 10% of total Fc/2 fragment), resulting from transfer of 23b to core GlcNAc(Fuc)-substituted trastuzumab.
Trimmed cetuximab (5 mg/mL, 33 μM), obtained by Endo S treatment of cetuximab, was incubated with the 4-azido-2,3,5,6-tetrafluorobenzoyl derivative of UDP-galactosamine (23b, 2 mM) and Gal-T1(Y289L,C342T) (1.0 mg/mL) in 25 mM Tris-HCL pH 7.5 and 150 mM NaCl at 30° C. overnight. Mass spectral analysis of the Fabricator™-digested sample indicated a partial conversion of the core GlcNac(Fuc)-substituted adalimumab (observed mass 24138 Da, calculated mass of 24136 Da) into product 30b (observed mass 24518 Da, calculated mass of 24514 Da, approximately 20% of total Fc/2 fragment), resulting from transfer of 23b to core GlcNAc(Fuc)-substituted adalimumab.
Trimmed bevacizumab (5 mg/mL, 33 μM), obtained by Endo S treatment of bevacizumab, was incubated with the 4-azido-2,3,5,6-tetrafluorobenzoyl derivative of UDP-galactosamine (23b, 2 mM) and Gal-T1(Y289L,C342T) (1.0 mg/mL) in 25 mM Tris-HCL pH 7.5 and 150 mM NaCl at 30° C. overnight. […]

SMILES strings stand for the structures.

Experimental findings from patent publication US20170009266A1, “PROCESS FOR THE ATTACHMENT OF A GALNAC MOIETY COMPRISING A (HETERO)ARYL GROUP TO A GLCNAC MOIETY, AND PRODUCT OBTAINED THEREBY” (SYNAFFIX B.V., priority 2014, published 2017) are described below.

For `O=C(NC1C(OP(=O)(O)OP(=O)(O)OCC2OC(n3ccc(=O)[nH]c3=O)C(O)C2O)OC(CO)C(O)C1O)c1cccnc1` (stereo not shown) [Compound 21, 3-pyridylcarbonyl Derivative of UDP-GalNH2], where the note is “trimmed trastuzumab 10 mg/mL, UDP derivative 2 mM, enzyme 0.5 mg/mL (E. coli), pH 7.5, 30° C. overnight, Fabricator-digested”, the conversion entry is “approximately 35%”. `[N-]=[N+]=Nc1c(F)c(F)c(C(=O)N[C@H]2[C@@H](OP(=O)(O)OP(=O)(O)OC[C@H]3O[C@@H](n4ccc(=O)[nH]c4=O)[C@H](O)[C@@H]3O)O[C@H](CO)[C@H](O)[C@@H]2O)c(F)c1F` [Compound 23b, 4-azido-2,3,5,6-tetrafluorobenzoyl Derivative of UDP-GalNH2]: the “product, % of total Fc/2 fragment” value by setting is: (trimmed adalimumab 5 mg/mL, UDP derivative 2 mM, enzyme 1.0 mg/mL, pH 7.5, 30° C. overnight) “approximately 30%”; (trimmed bevacizumab 5 mg/mL, UDP derivative 2 mM, enzyme 1.0 mg/mL, pH 7.5, 30° C. overnight) “approximately 30%”; (trimmed cetuximab 5 mg/mL, UDP derivative 2 mM, enzyme 1.0 mg/mL, pH 7.5, 30° C. overnight) “approximately 20%”; (trimmed trastuzumab 10 mg/mL, UDP derivative 1 mM, enzyme 1.0 mg/mL, pH 8.0, 30° C. overnight) “approximately 10%”. Turning to `[N-]=[N+]=Nc1c(F)cc(C(=O)N[C@H]2[C@@H](OP(=O)(O)OP(=O)(O)OC[C@H]3O[C@@H](n4ccc(=O)[nH]c4=O)[C@H](O)[C@@H]3O)O[C@H](CO)[C@H](O)[C@@H]2O)cc1F` [Compound 23, 4-azido-3,5-difluorobenzoyl Derivative of UDP-GalNH2], the “conversion of core GlcNAc(Fuc)-substituted trastuzumab into product” value (trimmed trastuzumab 10 mg/mL, UDP derivative 1 mM, enzyme 1.0 mg/mL, pH 8.0, 30° C. overnight, reduced sample) is listed as “complete conversion”. Consider `[N-]=[N+]=Nc1ccc(C(=O)NC2C(OP(=O)(O)OP(=O)(O)OCC3OC(n4ccc(=O)[nH]c4=O)C(O)C3O)OC(CO)C(O)C2O)cn1` (stereo not shown) [Compound 21b, 6-azidonicotinic Acid Derivative of UDP-GalNH2], for which the “product, % of total Fc/2 fragment” value (trimmed trastuzumab 10 mg/mL, UDP derivative 5 mM, enzyme 1.0 mg/mL, pH 7.5, 30° C. overnight) is given as “approximately 95%”.
